Experimental data from ChEMBL document CHEMBL1938244, “Synthesis, anticancer activity and apoptosis inducing ability of bisindole linked pyrrolo[2,1-c][1,4]benzodiazepine conjugates” (2012).
The source made the active and inactive calls. The calls are words filed in the database; no cut-off is given here.

How the values were obtained:
[1] = tested on: MCF7; test: Anticancer activity against human MCF7 cells by SRB method; assay type: functional
[2] = tested on: A549; test: Anticancer activity against human A549 cells by SRB method; assay type: functional
[3] = tested on: A2780; test: Anticancer activity against human A2780 cells by SRB method; assay type: functional
[4] = tested on: SiHa; test: Anticancer activity against human SiHa cells by SRB method; assay type: functional
[5] = tested on: COLO 205; test: Anticancer activity against human COLO205 cells by SRB method; assay type: functional
[6] = tested on: MCF7; test: Induction of apoptosis in human MCF7 cells assessed as caspase-7 activation at 8 uM after 24 hrs by Western blot analysis; assay type: functional, cell-based
[7] = tested on: MCF7; test: Induction of cell cycle arrest in human MCF7 cells assessed as accumulation of cells in S phase at 2 uM after 24 hrs by flow cytometry relative to untreated control; assay type: functional
[8] = tested on: MCF7; test: Induction of cell cycle arrest in human MCF7 cells assessed as accumulation of cells in G0 phase at 8 uM after 24 hrs by flow cytometry (reference value: 3.22%); assay type: functional
[9] = tested on: MCF7; test: Induction of cell cycle arrest in human MCF7 cells assessed as accumulation of cells in G0 phase at 2 uM after 24 hrs by flow cytometry relative to untreated control; assay type: functional
[10] = tested on: MCF7; test: Induction of cell cycle arrest in human MCF7 cells assessed as accumulation of cells in G2/M phase at 8 uM after 24 hrs by flow cytometry (reference value: 25.65%); assay type: functional
[11] = tested on: MCF7; test: Induction of cell cycle arrest in human MCF7 cells assessed as accumulation of cells in G1 phase at 8 uM after 24 hrs by flow cytometry relative to untreated control; assay type: functional
[12] = tested on: MCF7; test: Inhibition of HDAC2 protein expression in human MCF7 cells at 2 uM after 24 hrs by Western blotting; assay type: functional, cell-based
[13] = tested on: MCF7; test: Induction of cell cycle arrest in human MCF7 cells assessed as accumulation of cells in G2/M phase at 8 uM after 24 hrs by flow cytometry relative to untreated control; assay type: functional
[14] = tested on: MCF7; test: Induction of cell cycle arrest in human MCF7 cells assessed as accumulation of cells in S phase at 8 uM after 24 hrs by flow cytometry relative to untreated control; assay type: functional
[15] = tested on: MCF7; test: Induction of cell cycle arrest in human MCF7 cells assessed as accumulation of cells in G2/M phase at 2 uM after 24 hrs by flow cytometry relative to untreated control; assay type: functional
[16] = tested on: MCF7; test: Induction of cell cycle arrest in human MCF7 cells assessed as accumulation of cells in G1 phase at 4 uM after 24 hrs by flow cytometry (reference value: 65.58%); assay type: functional
[17] = tested on: MCF7; test: Inhibition of HDAC1 protein expression in human MCF7 cells at 2 uM after 24 hrs by Western blotting; assay type: functional, cell-based
[18] = tested on: MCF7; test: Induction of cell cycle arrest in human MCF7 cells assessed as accumulation of cells in G1 phase at 4 uM after 24 hrs by flow cytometry relative to untreated control; assay type: functional
[19] = tested on: MCF7; test: Induction of cell cycle arrest in human MCF7 cells assessed as accumulation of cells in G0 phase at 4 uM after 24 hrs by flow cytometry (reference value: 3.22%); assay type: functional
[20] = tested on: MCF7; test: Induction of cell cycle arrest in human MCF7 cells assessed as accumulation of cells in G1 phase at 8 uM after 24 hrs by flow cytometry (reference value: 65.58%); assay type: functional
[21] = tested on: MCF7; test: Induction of cell cycle arrest in human MCF7 cells assessed as accumulation of cells in G2/M phase at 4 uM after 24 hrs by flow cytometry relative to untreated control; assay type: functional
[22] = tested on: MCF7; test: Induction of cell cycle arrest in human MCF7 cells assessed as accumulation of cells in G0 phase at 2 uM after 24 hrs by flow cytometry (reference value: 2.9%); assay type: functional
[23] = tested on: MCF7; test: Induction of cell cycle arrest in human MCF7 cells assessed as accumulation of cells in G0 phase at 8 uM after 24 hrs by flow cytometry relative to untreated control; assay type: functional
[24] = tested on: MCF7; test: Induction of cell cycle arrest in human MCF7 cells assessed as accumulation of cells in G1 phase at 2 uM after 24 hrs by flow cytometry (reference value: 46%); assay type: functional
[25] = tested on: MCF7; test: Induction of cell cycle arrest in human MCF7 cells assessed as accumulation of cells in S phase at 8 uM after 24 hrs by flow cytometry (reference value: 5.55%); assay type: functional
[26] = tested on: MCF7; test: Inhibition of HDAC3 protein expression in human MCF7 cells at 2 uM after 24 hrs by Western blotting; assay type: functional, cell-based
[27] = tested on: MCF7; test: Induction of apoptosis in human MCF7 cells assessed as PARP-cleavage at 8 uM after 24 hrs by Western blot analysis; assay type: functional, cell-based
[28] = tested on: MCF7; test: Induction of cell cycle arrest in human MCF7 cells assessed as accumulation of cells in S phase at 2 uM after 24 hrs by flow cytometry (reference value: 14.87%); assay type: functional
[29] = tested on: MCF7; test: Induction of cell cycle arrest in human MCF7 cells assessed as accumulation of cells in G0 phase at 4 uM after 24 hrs by flow cytometry relative to untreated control; assay type: functional
[30] = tested on: MCF7; test: Inhibition of HDAC8 protein expression in human MCF7 cells at 2 uM after 24 hrs by Western blotting; assay type: functional, cell-based
[31] = tested on: MCF7; test: Induction of cell cycle arrest in human MCF7 cells assessed as accumulation of cells in S phase at 4 uM after 24 hrs by flow cytometry relative to untreated control; assay type: functional
[32] = tested on: MCF7; test: Induction of cell cycle arrest in human MCF7 cells assessed as accumulation of cells in G2/M phase at 4 uM after 24 hrs by flow cytometry (reference value: 25.65%); assay type: functional
[33] = tested on: MCF7; test: Induction of cell cycle arrest in human MCF7 cells assessed as accumulation of cells in G1 phase at 2 uM after 24 hrs by flow cytometry relative to untreated control; assay type: functional
[34] = tested on: MCF7; test: Induction of cell cycle arrest in human MCF7 cells assessed as accumulation of cells in S phase at 4 uM after 24 hrs by flow cytometry (reference value: 5.55%); assay type: functional
[35] = tested on: KB; test: Anticancer activity against human KB cells by SRB method; assay type: functional
[36] = tested on: MCF7; test: Induction of cell cycle arrest in human MCF7 cells assessed as accumulation of cells in G2/M phase at 2 uM after 24 hrs by flow cytometry (reference value: 36.23%); assay type: functional
[37] = tested on: MCF7; test: Anticancer activity against human MCF7 cells assessed as cell death at 2 uM after 24 hrs by MTT assay; assay type: functional
[38] = target: Tubulin (Homo sapiens) (UniProt P68371+Q9H4B7+P0DPH7+P68366+Q13509+Q71U36+P04350+Q3ZCM7+P07437+P68363+Q9BQE3+Q6PEY2+Q13885+Q9BVA1+Q9BUF5); test: Inhibition of tubulin polymerization in human MCF7 cells at 2 uM after 24 hrs by FITC-conjugated immunostaining assay; assay type: cell-based

`COc1cc2c(cc1OCCCCCCOc1ccc(C(c3c[nH]c4ccccc34)c3c[nH]c4ccccc34)cc1)N=C[C@@H]1CCCN1C2=O` showed a GI50 [1] of 140 nM, a GI50 [2] of 29000 nM and a GI50 [3] of 2460 nM.
With `COc1cc2c(cc1O)N=C[C@@H]1CCCN1C2=O` the GI50 [4] was 160 nM, the GI50 [5] was 110 nM and the Activity [6] was “Active”. It also gave an Activity [7] of 8.02%, an Activity [8] of 30.04% and an Activity [9] of 3.14%. It also gave an Activity [10] of 7.15%, a GI50 [1] of 170 nM and an Activity [11] of 57.74%. For the same molecule, the inhibition [12] was “Active”, the Activity [13] was 8.05% and the Activity [14] was 4.53%. The Activity [15] was 33.79%, the Activity [16] was 69.54% and the inhibition [17] was “Active”. It also gave a GI50 [2] of 160 nM, an Activity [18] of 70.84% and an Activity [19] of 9.56%. For the same molecule, the Activity [20] was 58.22%, the Activity [21] was 11.31% and the Activity [22] was 3.72%. It also gave an Activity [23] of 29.68%, an Activity [24] of 53.62% and an Activity [25] of 4.59%. The inhibition [26] was “Active”, the Activity [27] was “Active” and the Activity [28] was 8.26%. For the same molecule, the Activity [29] was 9.27%, the inhibition [30] was “Active” and the Activity [31] was 8.56%. The Activity [32] was 11.33%, the Activity [33] was 55.11% and the Activity [34] was 9.57%. For the same molecule, the GI50 [35] was 170 nM, the Activity [36] was 34.4% and the Activity [37] was “Active”. For the same molecule, the GI50 [3] was 140 nM and the inhibition [38] was “inactive”.
With `COc1cc2c(cc1OCCCCOc1cccc(C(c3c[nH]c4ccccc34)c3c[nH]c4ccccc34)c1)N=C[C@@H]1CCCN1C2=O` the GI50 [5] was 28500 nM, the GI50 [1] was 2010 nM and the GI50 [3] was 27000 nM.
With `Oc1cccc(C(c2c[nH]c3ccccc23)c2c[nH]c3ccccc23)c1` the Activity [6] was “Active”, the Activity [7] was 9.86% and the Activity [8] was 6%. It also gave an Activity [9] of 2.8%, an Activity [10] of 37.93% and an Activity [11] of 45.99%. The inhibition [12] was “Active”, the Activity [13] was 37.97% and the Activity [14] was 10.02%. The Activity [15] was 36.03%, the Activity [16] was 50.68% and the inhibition [17] was “Active”. The Activity [18] was 50.56%, the Activity [19] was 4% and the Activity [20] was 46.98%. For the same molecule, the Activity [21] was 36.3%, the Activity [22] was 2.9% and the Activity [23] was 6.03%. For the same molecule, the Activity [24] was 50%, the Activity [25] was 9.08% and the inhibition [26] was “Active”. The Activity [27] was “Active”, the Activity [28] was 10.1% and the Activity [29] was 3.63%. For the same molecule, the inhibition [30] was “Active”, the Activity [31] was 9.41% and the Activity [32] was 36.08%. The Activity [33] was 51.23%, the Activity [34] was 9.24% and the Activity [36] was 37%. The Activity [37] was “Active” and the inhibition [38] was “Active”.
